# Experimental data reported in ChEMBL document CHEMBL1149225, “Synthesis and evaluation of substituted 4-alkoxy-2-aminopyridines as novel neuropeptide Y1 receptor antagonists” (Bioorg Med Chem Lett, 2004).
# How the values were obtained:
# [1] = target: T1, Neuropeptide Y receptor type 1 (Homo sapiens, UniProt P25929); assay: Binding affinity against human recombinant NPY Y1 receptor in CHO/dhFr- cell membranes using [125I]PYY
# T1 sequence (P25929 whole entry): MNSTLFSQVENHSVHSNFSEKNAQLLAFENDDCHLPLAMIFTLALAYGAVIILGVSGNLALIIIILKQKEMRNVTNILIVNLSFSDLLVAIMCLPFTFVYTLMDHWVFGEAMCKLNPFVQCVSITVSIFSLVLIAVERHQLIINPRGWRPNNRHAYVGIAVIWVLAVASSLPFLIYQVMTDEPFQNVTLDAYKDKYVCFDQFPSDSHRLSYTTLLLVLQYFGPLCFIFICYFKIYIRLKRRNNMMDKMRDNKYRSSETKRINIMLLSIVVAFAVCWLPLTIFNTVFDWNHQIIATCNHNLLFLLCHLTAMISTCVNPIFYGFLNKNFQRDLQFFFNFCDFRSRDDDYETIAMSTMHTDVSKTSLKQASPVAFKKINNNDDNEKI
# CHO = assay: Inhibitory concentration against 1 nM NPY induced [Ca2+] increase in CHO/dhFr- cells expressing recombinant human Y1 receptor; type: functional, cell-based; settings: Cricetulus griseus
Compound,IC50 [1],IC50 (CHO)
CCCCCCOc1cc(CCc2nc(C)c(CC)s2)nc(NCc2cc(Cl)cc(NC(=O)OC(C)C)c2)c1,63 nM,
CCc1sc(CCc2cc(OC(CC)CC)cc(NCc3cc(Cl)cc(NC(=O)OC(C)C)c3)n2)nc1C,5.5 nM,33 nM
CCc1sc(CCc2cc(OCCCc3cccnc3)cc(NCc3cc(Cl)cc(NC(=O)OC(C)C)c3)n2)nc1C,6.5 nM,46 nM
CCc1sc(CCc2cc(OCCc3ccccc3)cc(NCc3cc(Cl)cc(NC(=O)OC(C)C)c3)n2)nc1C,30 nM,
CCCCCOc1cc(CCc2nc(C)c(CC)s2)nc(NCc2cc(Cl)cc(NC(=O)OC(C)C)c2)c1,35 nM,
CCc1sc(CCc2cc(OCCCc3ccccc3)cc(NCc3cc(Cl)cc(NC(=O)OC(C)C)c3)n2)nc1C,20 nM,
CC/C=C\CCOc1cc(CCc2nc(C)c(CC)s2)nc(NCc2cc(Cl)cc(NC(=O)OC(C)C)c2)c1,4.7 nM,64 nM
CCc1sc(CCc2cc(OCc3ccccc3)cc(NCc3cc(Cl)cc(NC(=O)OC(C)C)c3)n2)nc1C,237 nM,
CCCCCCCOc1cc(CCc2nc(C)c(CC)s2)nc(NCc2cc(Cl)cc(NC(=O)OC(C)C)c2)c1,72 nM,
CCc1sc(CCc2cc(OC(C)COC)cc(NCc3cc(Cl)cc(NC(=O)OC(C)C)c3)n2)nc1C (stereo not drawn),8.4 nM,59 nM
CCc1sc(CCc2cc(OCC(C)(C)C)cc(NCc3cc(Cl)cc(NC(=O)OC(C)C)c3)n2)nc1C,55 nM,

# Now from value to compound, other results behind:
IC50 [1],Compound,IC50 (CHO)
11 nM,CCc1sc(CCc2cc(OC3CCC3)cc(NCc3cc(Cl)cc(NC(=O)OC(C)C)c3)n2)nc1C,
11 nM,CCc1sc(CCc2cc(OC3CCCC3)cc(NCc3cc(Cl)cc(NC(=O)OC(C)C)c3)n2)nc1C,
16 nM,CCCCOc1cc(CCc2nc(C)c(CC)s2)nc(NCc2cc(Cl)cc(NC(=O)OC(C)C)c2)c1,
17 nM,CCCOc1cc(CCc2nc(C)c(CC)s2)nc(NCc2cc(Cl)cc(NC(=O)OC(C)C)c2)c1,
1.4 nM,CCc1sc(CCc2cc(N3CCOCC3)cc(NCc3cc(Cl)cc(NC(=O)OC(C)C)c3)n2)nc1C,2.9 nM
33 nM,CCOc1cc(CCc2nc(C)c(CC)s2)nc(NCc2cc(Cl)cc(NC(=O)OC(C)C)c2)c1,
4.4 nM,CCc1sc(CCc2cc(OC3CCOCC3)cc(NCc3cc(Cl)cc(NC(=O)OC(C)C)c3)n2)nc1C,42 nM
234 nM,CCc1sc(CCc2cc(OC)cc(NCc3cc(Cl)cc(NC(=O)OC(C)C)c3)n2)nc1C,
12 nM,CCc1sc(CCc2cc(OC(C)C)cc(NCc3cc(Cl)cc(NC(=O)OC(C)C)c3)n2)nc1C,
17 nM,CCc1sc(CCc2cc(OCC3(C)CC3)cc(NCc3cc(Cl)cc(NC(=O)OC(C)C)c3)n2)nc1C,
29 nM,CCc1sc(CCc2cc(OC3CCCCC3)cc(NCc3cc(Cl)cc(NC(=O)OC(C)C)c3)n2)nc1C,
